Experimental findings from patent US20040198673A1, “Composition for epigallocatechin gallate” (priority 2001, published 2004) are described below.

This series can be described thus: Agway test of powder flowability (glass funnel, 11-mm opening). The series is classed as physicochemical. The conditions noted are these: 100 g, 11-mm funnel opening. The protocol:
Granulated EGCG was compared with EGCG powder (the starting material for granulation) for powder flowability using the Agway test. In that test, flowability is determined by placing 100 gram of the granules in a glass funnel with a 11-mm opening, which is sealed temporarily. The measurement is started by releasing the seal. Flowability is determined as the time for the entire powder to flow through the funnel in seconds per 100 g of granule.

As to “(−)-epigallocatechin gallate [EGCG powder]”, the “Powder flowability (result in words)” value is “did not flow”.
